The text below walks through data of PMC3669024, “Pharmacological Characterization of a 5-HT1-Type Serotonin Receptor in the Red Flour Beetle, Tribolium castaneum” (PLoS ONE, 2013).

Format in all cases: cell-based
In assay [1] the target is T1, Trica5-HT1 (Tribolium castaneum, UniProt R9ULB8). Description: Aequorin-luminescence assay in CHO-PAM28 cells (no Gα16), Ca2+ signaling of Trica5-HT1. As to conditions: CHO-PAM28 cells transfected with the receptor. On the procedure: (§1) General binding studies were performed in Chinese hamster ovary (CHO) WTA11 cells stably coexpressing apoaequorin and the promiscuous Gα16. This allowed us to measure the pharmacology independent of the downstream signaling. CHO-PAM28 cells stably expressing apoaequorin, but not the promiscuous Gα16, and human embryonic kidney cells (HEK) 293 cells were used to measure downstream signaling via Ca^2+ and cAMP, respectively. CHO cell lines were provided by Prof. Marc Parmentier (University of Brussels, Belgium) and Dr. Michel Detheux (Euroscreen S.A., Belgium). HEK293 cells were a gift from Prof. Arnd Baumann (Research Centre Jülich, Germany.
Cells were cultured in vitro as monolayers at 37°C, 5% CO2 and high relative humidity, and subcultivated twice a week. […] HEK293 cells were cotransfected with receptor construct (4 µg) and CRE-luciferase construct (2 µg), consisting of the open reading frame of the reporter gene, luciferase, downstream of a multimerized cAMP-response-element (CRE6x), [39]. […]
The transfected CHO cells were detached with phosphate buffered saline (PBS) containing 0.2% EDTA and collected in DMEM/F-12 (without phenol red, with L-glutamine and 10 mM HEPES) (Gibco). The amount of viable cells was determined using the NucleoCounter NC-100+TM (Chemometic). […] Receptor activity was measured as the light emission after adding 50 µl of the cell suspension. […]

In assay [2] the target is T1, Trica5-HT1. Description: Aequorin-luminescence assay, agonist activation of Trica5-HT1 in CHO-WTA11 cells (apoaequorin + Gα16). The method, then:
as §1
(§2) Cells were cultured in vitro as monolayers at 37°C, 5% CO2 and high relative humidity, and subcultivated twice a week. For transfection of CHO cells, 2.5 ml Opti-MEM®I (Invitrogen), 5 µg plasmid DNA and 12.5 µl Plus^TMreagent (Invitrogen) were mixed, stored at room temperature for 5 min and next repleted with 30 µl Lipofectamine™LTX (Invitrogen). After 30 min incubation at room temperature, this transfection mixture was added dropwise to the cells together with 5 ml medium. HEK293 cells were cotransfected with receptor construct (4 µg) and CRE-luciferase construct (2 µg), consisting of the open reading frame of the reporter gene, luciferase, downstream of a multimerized cAMP-response-element (CRE6x), [39]. All transfections were performed in T75 flasks with a confluency of about 60 percent. Cells were grown overnight, after which 15 ml of medium was added for an additional overnight incubation period.
The transfected CHO cells were detached with phosphate buffered saline (PBS) containing 0.2% EDTA and collected in DMEM/F-12 (without phenol red, with L-glutamine and 10 mM HEPES) (Gibco). The amount of viable cells was determined using the NucleoCounter NC-100+TM (Chemometic). Cells were pelleted for 4 min at 800 rpm at room temperature and resuspended in BSA-medium (DMEM/F12 without phenol red, with L-glutamine and 10 mM HEPES, supplemented with 0.1% bovine serum albumin) to a concentration of 5×10^6 cells/ml. Coelenterazine H (Invitrogen) was added to a final concentration of 5 µM, and cells were gently shaken for 4 h at room temperature in the dark. After a 10-fold dilution in BSA-medium, cells were incubated another 30 min. The pharmacological ligands were dissolved in BSA-medium. For agonists, 50 µl containing the final ligand concentration was added to appropriate wells of a 96-well plate. For antagonists, 25 µl of the antagonist solution was supplemented with 25 µl of a 5-HT solution. Receptor activity was measured as the light emission after adding 50 µl of the cell suspension. Light emission was measured for 30 s using a Mithras LB940 (Berthold Technologies). Subsequently, cells were lysed with Triton X-100 (0.1% in BSA-medium) and light emission was recorded for another 8 s. BSA-medium was used as a negative control. Light emission from each well was calculated relative to the total response (ligand+Triton X-100) using the output file of Mikrowin2000 software (Mikrotek). Further analysis was done in Graphpad Prism 5.
In order to pharmacologically characterize Trica5-HT1, we used CHO-WTA11 cells stably expressing apoaequorin and the promiscuous Gα16 subunit. […] The dose-response relationship for 5-HT and these synthetic agonists was examined at concentrations ranging from 1 pM to 1 mM (Figure 3B). […] Since the efficacy achieved by any agonist depends on the number of receptors expressed, we measured a dose-response curve for 5-HT in every experiment and normalized all agonist effects to the maximum 5-HT response, set at 100% (Figure 3B).

Assay [3] addresses T1, Trica5-HT1. Description: CRE-luciferase reporter-gene assay, NKH-477 stimulated cAMP in HEK293 cells expressing Trica5-HT1. As to conditions: for IC50: NKH-477 stimulated cAMP. The method, then:
as §1, §2
Cotransfected HEK293 cells were detached and the amount of viable cells was determined as described for CHO cells. Cells were pelleted for 4 min at 800 rpm at room temperature and resuspended in DMEM/F12 medium (without phenol red, with L-glutamine and 10 mM HEPES) containing 200 µM 3-isobutyl-1-methylxanthine (IBMX, Sigma-Aldrich) to a concentration of 10^6 cells/ml. The pharmacological ligands were dissolved in DMEM/F12 medium without phenol red containing 200 µM IBMX. The water-soluble forskolin analog NKH-477 was added to a concentration of 20 µM to measure Trica5-ht1-mediated effects on cellular cAMP signaling. In each well of a 96-well plate, 50 µl of ligand suspension and 50 µl of cell suspension were dispensed. […] Light emission was measured for 5 s per well using a Mithras LB940 (Berthold Technologies). […] Data were analyzed as described for CHO cells.
CHO-PAM28 and HEK293 cells were used to determine the downstream signaling pathway of Trica5-HT1. […] Relative high variation in the data can be explained by assay based variation since cells were not counted when dispensed. […]
A general note: A reporter such as luciferase makes a cellular process visible.

The EC50 is the concentration giving half of the maximal effect.

Structures can show the parent of a compound that is named as a salt. Where two headings read alike, the source gives them in different places.

T1 sequence (R9ULB8 entry or part of it): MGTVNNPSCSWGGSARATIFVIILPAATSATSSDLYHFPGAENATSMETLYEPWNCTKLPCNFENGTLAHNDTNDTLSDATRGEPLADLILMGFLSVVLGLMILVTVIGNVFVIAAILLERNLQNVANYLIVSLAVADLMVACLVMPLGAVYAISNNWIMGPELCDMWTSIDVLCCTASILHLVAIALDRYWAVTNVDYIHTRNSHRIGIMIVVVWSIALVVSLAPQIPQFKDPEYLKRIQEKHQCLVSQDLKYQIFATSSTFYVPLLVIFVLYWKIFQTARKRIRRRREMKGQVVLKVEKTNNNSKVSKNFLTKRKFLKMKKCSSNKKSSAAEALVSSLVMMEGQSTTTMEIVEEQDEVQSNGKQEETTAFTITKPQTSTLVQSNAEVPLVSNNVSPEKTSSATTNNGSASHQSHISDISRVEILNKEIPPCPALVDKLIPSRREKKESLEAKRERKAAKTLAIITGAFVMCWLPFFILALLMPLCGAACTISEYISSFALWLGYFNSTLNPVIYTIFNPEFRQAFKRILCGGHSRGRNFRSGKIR

Turning to `NCCc1c[nH]c2ccc(O)cc12` [5-HT, 5-HT hydrochloride], the “effect on Ca2+ signaling” value at Trica5-HT1 [1] is “No effect”. The “concentration at which the maximal response was attained” value on Trica5-HT1 [2] (CHO-WTA11 cells) is recorded as no less than 10 µM. The “response at 100 µM agonist” value on Trica5-HT1 [2] (CHO-WTA11 cells, 100 µM, Figure 3A) is reported as “Significant responses”. Also, the EC50 at Trica5-HT1 [2] (EC50, receptor activation in CHO-WTA11 cells) is 95 nM; at Trica5-HT1 [2] (Half-maximal activation (EC50), CHO-WTA11 cells) it was 95.2 nM; on Trica5-HT1 [2] (logEC50 (mean ± SEM), receptor activation in CHO-WTA11 cells, given as negative log values), 97.7 nM. Also, the “concentration at which maximal attenuation of cAMP synthesis was attained” value at Trica5-HT1 [3] is no less than 10 µM. In addition, the “Maximal attenuation of cAMP synthesis” value at Trica5-HT1 [3] (5-HT ≥10 µM) is roughly 40%. In addition, the IC50 is 83.2 nM on Trica5-HT1 [3] (given as negative log value, read-out: logIC50 (mean ± SEM) (converted)) and 82.7 nM on Trica5-HT1 [3] (read-out: Half maximal reduction of cAMP).
